Results taken from PubChem BioAssay (NCI).
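48-hour exposure; five concentrations; linearly interpolated endpoints. Abbreviation: GI50, concentration required for 50% inhibition of growth. At the TGI there is no net growth.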

Key:
Test in all cases: inhibition of tumour cell growth, NCI panel, 48 h
NCI-H226 lung = test system: NCI-H226 lung
MCF7 breast = test system: MCF7 breast
NCI-H460 lung = test system: NCI-H460 lung
SF-539 CNS = test system: SF-539 CNS
A549 NSCLC = test system: A549 NSCLC
IGROV1 ovarian = test system: IGROV1 ovarian
U251 CNS = test system: U251 CNS
SF-268 CNS = test system: SF-268 CNS
BT-549 breast = test system: BT-549 breast
MDA-MB-435 = test system: MDA-MB-435
SNB-19 CNS = test system: SNB-19 CNS
SK-MEL-28 melanoma = test system: SK-MEL-28 melanoma
OVCAR-5 ovarian = test system: OVCAR-5 ovarian
HCT-116 colon = test system: HCT-116 colon
HOP-62 NSCLC = test system: HOP-62 NSCLC
NCI/ADR-RES ovarian = test system: NCI/ADR-RES ovarian
LOX IMVI melanoma = test system: LOX IMVI melanoma
SN12C renal = test system: SN12C renal
RPMI-8226 leukemia = test system: RPMI-8226 leukemia
UACC-257 melanoma = test system: UACC-257 melanoma
SNB-75 CNS = test system: SNB-75 CNS
CAKI-1 renal = test system: CAKI-1 renal
SW-620 colon = test system: SW-620 colon
HOP-92 NSCLC = test system: HOP-92 NSCLC
HL-60(TB) leukemia = test system: HL-60(TB) leukemia
HS 578T breast = test system: HS 578T breast
SR leukemia = test system: SR leukemia
PC-3 prostate = test system: PC-3 prostate
HCC-2998 colon = test system: HCC-2998 colon
CCRF-CEM leukemia = test system: CCRF-CEM leukemia
COLO 205 colon = test system: COLO 205 colon
M14 melanoma = test system: M14 melanoma
T-47D breast = test system: T-47D breast
MDA-MB-231 breast = test system: MDA-MB-231 breast
RXF 393 renal = test system: RXF 393 renal
OVCAR-4 ovarian = test system: OVCAR-4 ovarian
UACC-62 melanoma = test system: UACC-62 melanoma
KM12 colon = test system: KM12 colon
MALME-3M melanoma = test system: MALME-3M melanoma
A498 renal = test system: A498 renal
HT29 colon = test system: HT29 colon
NCI-H522 lung = test system: NCI-H522 lung
OVCAR-3 ovarian = test system: OVCAR-3 ovarian
HCT-15 colon = test system: HCT-15 colon
TK-10 renal = test system: TK-10 renal
EKVX NSCLC = test system: EKVX NSCLC
MOLT-4 leukemia = test system: MOLT-4 leukemia
786-0 renal = test system: 786-0 renal
UO-31 renal = test system: UO-31 renal
SF-295 CNS = test system: SF-295 CNS
OVCAR-8 ovarian = test system: OVCAR-8 ovarian
SK-MEL-2 melanoma = test system: SK-MEL-2 melanoma
SK-OV-3 ovarian = test system: SK-OV-3 ovarian
ACHN renal = test system: ACHN renal
DU-145 prostate = test system: DU-145 prostate
SK-MEL-5 melanoma = test system: SK-MEL-5 melanoma

`COc1cc2c3c(n(CCCNCC4CC4)c(=O)c2cc1OC)-c1cc2c(cc1C3=O)OCO2` gave a GI50 (NCI-H226 lung) of 10700 nM, a TGI (NCI-H226 lung) of 28700 nM and a GI50 (MCF7 breast) of 95.3 nM. The TGI (MCF7 breast) was 1690 nM, the GI50 (NCI-H460 lung) was 243 nM and the TGI (NCI-H460 lung) was 1460 nM. The GI50 (SF-539 CNS) was 763 nM, the TGI (SF-539 CNS) was 2080 nM and the GI50 (A549 NSCLC) was 1220 nM. For the same compound, the TGI (A549 NSCLC) was 2570 nM, the GI50 (IGROV1 ovarian) was 1160 nM and the TGI (IGROV1 ovarian) was 2750 nM. For the same compound, the GI50 (U251 CNS) was 473 nM, the TGI (U251 CNS) was 1890 nM and the GI50 (SF-268 CNS) was 764 nM. It also gave a TGI (SF-268 CNS) of 2490 nM, a GI50 (BT-549 breast) of 12700 nM and a TGI (BT-549 breast) of 26700 nM. It also gave a GI50 (MDA-MB-435) of 1290 nM, a TGI (MDA-MB-435) of 2570 nM and a GI50 (SNB-19 CNS) of 781 nM. For the same compound, the TGI (SNB-19 CNS) was 2470 nM, the GI50 (SK-MEL-28 melanoma) was 14800 nM and the TGI (SK-MEL-28 melanoma) was 28800 nM. For the same compound, the GI50 (OVCAR-5 ovarian) was 1740 nM, the TGI (OVCAR-5 ovarian) was 3290 nM and the GI50 (HCT-116 colon) was 1140 nM. It also gave a TGI (HCT-116 colon) of 2540 nM, a GI50 (HOP-62 NSCLC) of 354 nM and a TGI (HOP-62 NSCLC) of 1600 nM. For the same compound, the GI50 (NCI/ADR-RES ovarian) was 1070 nM, the TGI (NCI/ADR-RES ovarian) was 2890 nM and the GI50 (LOX IMVI melanoma) was 349 nM. It also gave a TGI (LOX IMVI melanoma) of 1890 nM, a GI50 (SN12C renal) of 1370 nM and a TGI (SN12C renal) of 3230 nM. It also gave a GI50 (RPMI-8226 leukemia) of 636 nM, a TGI (RPMI-8226 leukemia) of 3310 nM and a GI50 (UACC-257 melanoma) of 13600 nM. It also gave a TGI (UACC-257 melanoma) of 26700 nM, a GI50 (SNB-75 CNS) of 1740 nM and a TGI (SNB-75 CNS) of 19600 nM. The GI50 (CAKI-1 renal) was 990 nM, the TGI (CAKI-1 renal) was 2150 nM and the GI50 (SW-620 colon) was 573 nM. For the same compound, the TGI (SW-620 colon) was 2190 nM, the GI50 (HOP-92 NSCLC) was 9320 nM and the TGI (HOP-92 NSCLC) was 21900 nM. For the same compound, the GI50 (HL-60(TB) leukemia) was 1470 nM, the TGI (HL-60(TB) leukemia) was 3250 nM and the GI50 (HS 578T breast) was 18800 nM. It also gave a TGI (HS 578T breast) of 59600 nM, a GI50 (SR leukemia) of 70.8 nM and a TGI (SR leukemia) of 1230 nM. It also gave a GI50 (PC-3 prostate) of 1210 nM, a TGI (PC-3 prostate) of 2840 nM and a GI50 (HCC-2998 colon) of 1240 nM. It also gave a TGI (HCC-2998 colon) of 2550 nM, a GI50 (CCRF-CEM leukemia) of 82 nM and a TGI (CCRF-CEM leukemia) of 2700 nM. It also gave a GI50 (COLO 205 colon) of 1110 nM, a TGI (COLO 205 colon) of 4210 nM and a GI50 (M14 melanoma) of 1090 nM. The TGI (M14 melanoma) was 2380 nM, the GI50 (T-47D breast) was 7130 nM and the TGI (T-47D breast) was 25700 nM. For the same compound, the GI50 (MDA-MB-231 breast) was 1440 nM, the TGI (MDA-MB-231 breast) was 3110 nM and the GI50 (RXF 393 renal) was 1490 nM. The TGI (RXF 393 renal) was 2830 nM, the GI50 (OVCAR-4 ovarian) was 1730 nM and the TGI (OVCAR-4 ovarian) was 3350 nM. The GI50 (UACC-62 melanoma) was 2860 nM, the TGI (UACC-62 melanoma) was 21100 nM and the GI50 (KM12 colon) was 1370 nM. The TGI (KM12 colon) was 3120 nM, the GI50 (MALME-3M melanoma) was 1490 nM and the TGI (MALME-3M melanoma) was 2970 nM. For the same compound, the GI50 (A498 renal) was 12600 nM, the TGI (A498 renal) was 25400 nM and the GI50 (HT29 colon) was 1060 nM. It also gave a TGI (HT29 colon) of 2320 nM, a GI50 (NCI-H522 lung) of 492 nM and a TGI (NCI-H522 lung) of 2100 nM. It also gave a GI50 (OVCAR-3 ovarian) of 1420 nM, a TGI (OVCAR-3 ovarian) of 2840 nM and a GI50 (HCT-15 colon) of 1250 nM. The TGI (HCT-15 colon) was 2800 nM, the GI50 (TK-10 renal) was 15600 nM and the TGI (TK-10 renal) was 29200 nM. For the same compound, the GI50 (EKVX NSCLC) was 1780 nM, the TGI (EKVX NSCLC) was 3480 nM and the GI50 (MOLT-4 leukemia) was 38.5 nM. For the same compound, the TGI (MOLT-4 leukemia) was 1540 nM, the GI50 (786-0 renal) was 1440 nM and the TGI (786-0 renal) was 2810 nM. For the same compound, the GI50 (UO-31 renal) was 1410 nM, the TGI (UO-31 renal) was 2790 nM and the GI50 (SF-295 CNS) was 307 nM. It also gave a TGI (SF-295 CNS) of 1530 nM, a GI50 (OVCAR-8 ovarian) of 1110 nM and a TGI (OVCAR-8 ovarian) of 2660 nM. The GI50 (SK-MEL-2 melanoma) was 20800 nM, the TGI (SK-MEL-2 melanoma) was 35200 nM and the GI50 (SK-OV-3 ovarian) was 1050 nM. The TGI (SK-OV-3 ovarian) was 7630 nM, the GI50 (ACHN renal) was 439 nM and the TGI (ACHN renal) was 1570 nM. The GI50 (DU-145 prostate) was 759 nM, the TGI (DU-145 prostate) was 2110 nM and the GI50 (SK-MEL-5 melanoma) was 10100 nM. It also gave a TGI (SK-MEL-5 melanoma) of 21800 nM.
